Results from ChEMBL document CHEMBL2380231, “X-ray crystal structure of ERK5 (MAPK7) in complex with a specific inhibitor” (J Med Chem, 2013).
Calls of active or inactive are those of the source. The rule behind the calls is not given here.

Experiments:
Type in all cases: cell-based
[1] = biological target: T1, Mitogen-activated protein kinase; ERK1/ERK2 (Homo sapiens) (UniProt P27361+P28482); test: Inhibition of ERK1/ERK2 phosphorylation in sorbitol-stimulated human HeLa cells at 0.04 to 5 uM incubated for 1 hr prior to sorbitol stimulation measured after 30 mins by Western blot analysis
[2] = biological target: T1, Mitogen-activated protein kinase; ERK1/ERK2 (Homo sapiens); test: Inhibition of total ERK1/ERK2 in sorbitol-stimulated human HeLa cells at 0.04 to 5 uM incubated for 1 hr prior to sorbitol stimulation measured after 30 mins by Western blot analysis
[3] = biological target: T2, Mitogen-activated protein kinase 7 (Homo sapiens, UniProt Q13164); test: Inhibition of ERK5 autophosphorylation in sorbitol-stimulated human HeLa cells at 0.04 to 5 uM incubated for 1 hr prior to sorbitol stimulation measured after 30 mins by Western blot analysis
Target sequence in this assay (Q13164 2-816 limits assumed): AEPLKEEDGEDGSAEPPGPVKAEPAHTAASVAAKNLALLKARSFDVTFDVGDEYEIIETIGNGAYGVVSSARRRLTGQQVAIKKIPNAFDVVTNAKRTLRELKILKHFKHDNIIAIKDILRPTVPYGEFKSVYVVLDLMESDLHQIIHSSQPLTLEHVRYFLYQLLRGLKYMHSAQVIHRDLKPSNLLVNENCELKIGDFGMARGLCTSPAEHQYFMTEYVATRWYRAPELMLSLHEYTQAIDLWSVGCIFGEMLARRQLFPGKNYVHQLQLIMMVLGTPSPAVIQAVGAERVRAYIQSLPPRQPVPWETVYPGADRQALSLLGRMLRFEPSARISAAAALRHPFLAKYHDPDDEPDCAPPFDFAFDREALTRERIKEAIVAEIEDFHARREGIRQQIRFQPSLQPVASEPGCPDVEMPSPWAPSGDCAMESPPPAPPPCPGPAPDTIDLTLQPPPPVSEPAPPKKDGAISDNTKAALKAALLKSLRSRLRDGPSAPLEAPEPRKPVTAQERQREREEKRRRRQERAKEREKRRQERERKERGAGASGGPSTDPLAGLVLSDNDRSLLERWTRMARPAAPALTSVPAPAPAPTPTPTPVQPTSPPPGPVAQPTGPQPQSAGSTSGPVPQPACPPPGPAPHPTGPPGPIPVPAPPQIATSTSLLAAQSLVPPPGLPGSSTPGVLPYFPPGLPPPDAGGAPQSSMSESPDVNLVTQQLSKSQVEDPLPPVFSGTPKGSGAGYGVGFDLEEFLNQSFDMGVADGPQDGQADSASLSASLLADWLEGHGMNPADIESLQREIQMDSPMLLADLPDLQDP

[4] = biological target: T2, Mitogen-activated protein kinase 7; test: Inhibition of GST-tagged full length human ERK5 transfected in HEK293 cells assessed as inhibition of AP1 transcriptional activity after 24 hrs by dual luciferase reporter gene assay
Target sequence in this assay (Q13164 whole entry): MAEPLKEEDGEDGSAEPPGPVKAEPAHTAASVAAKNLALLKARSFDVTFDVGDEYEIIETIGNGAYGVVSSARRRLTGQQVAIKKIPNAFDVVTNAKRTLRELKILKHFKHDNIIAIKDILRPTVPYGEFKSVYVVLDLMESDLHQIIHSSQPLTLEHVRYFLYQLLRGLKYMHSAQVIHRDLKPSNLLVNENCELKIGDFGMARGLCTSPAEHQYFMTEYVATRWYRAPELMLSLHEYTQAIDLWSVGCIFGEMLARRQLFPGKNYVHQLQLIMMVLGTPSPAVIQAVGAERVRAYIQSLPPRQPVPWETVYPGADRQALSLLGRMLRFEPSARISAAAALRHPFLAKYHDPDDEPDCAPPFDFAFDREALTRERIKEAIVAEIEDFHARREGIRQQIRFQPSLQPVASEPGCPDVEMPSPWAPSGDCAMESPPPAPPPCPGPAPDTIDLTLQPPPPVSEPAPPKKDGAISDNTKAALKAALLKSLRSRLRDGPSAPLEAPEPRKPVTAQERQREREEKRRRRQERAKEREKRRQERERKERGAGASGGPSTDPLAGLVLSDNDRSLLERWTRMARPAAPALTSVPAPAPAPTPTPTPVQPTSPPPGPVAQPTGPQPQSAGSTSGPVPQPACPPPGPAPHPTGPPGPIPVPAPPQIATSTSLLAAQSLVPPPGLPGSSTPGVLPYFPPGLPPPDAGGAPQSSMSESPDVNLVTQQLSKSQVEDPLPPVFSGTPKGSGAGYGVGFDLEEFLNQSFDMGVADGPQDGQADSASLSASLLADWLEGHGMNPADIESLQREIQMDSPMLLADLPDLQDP

T1 sequence (P27361 whole entry, looked up): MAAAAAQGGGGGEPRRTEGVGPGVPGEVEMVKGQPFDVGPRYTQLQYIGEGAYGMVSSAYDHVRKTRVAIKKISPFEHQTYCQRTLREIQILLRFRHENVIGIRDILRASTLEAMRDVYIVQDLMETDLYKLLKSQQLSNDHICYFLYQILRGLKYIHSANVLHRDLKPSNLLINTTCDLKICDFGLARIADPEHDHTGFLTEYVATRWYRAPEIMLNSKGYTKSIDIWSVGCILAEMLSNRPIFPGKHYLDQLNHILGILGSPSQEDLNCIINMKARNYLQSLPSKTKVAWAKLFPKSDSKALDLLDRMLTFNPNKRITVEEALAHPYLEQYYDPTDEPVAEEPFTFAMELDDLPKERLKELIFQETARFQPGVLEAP
T1 sequence (P28482 whole entry, looked up): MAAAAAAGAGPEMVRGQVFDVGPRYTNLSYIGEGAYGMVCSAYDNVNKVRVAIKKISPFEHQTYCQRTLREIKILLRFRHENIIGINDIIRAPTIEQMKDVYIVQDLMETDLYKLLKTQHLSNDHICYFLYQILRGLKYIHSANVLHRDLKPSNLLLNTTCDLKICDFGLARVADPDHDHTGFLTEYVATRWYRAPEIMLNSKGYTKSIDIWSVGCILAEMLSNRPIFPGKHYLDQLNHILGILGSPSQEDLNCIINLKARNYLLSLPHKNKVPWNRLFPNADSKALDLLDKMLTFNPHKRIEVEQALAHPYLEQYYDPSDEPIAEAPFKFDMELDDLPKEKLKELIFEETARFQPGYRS

Compound | inhibition [1] | inhibition [2] | inhibition [3] | EC50 [4] [µM]
CCOc1cc(C(=O)N2CCC(N3CCN(C)CC3)CC2)ccc1Nc1ncc2c(n1)N(C1CCCC1)c1ccccc1C(=O)N2C | inactive | inactive | Active | 
COc1cc(C(=O)N2CCC(N3CCN(C)CC3)CC2)ccc1Nc1ncc2c(n1)N1CCc3cccc(c31)C(=O)N2C |  |  |  | > 30
